According to patent publication US9914724B2, “C-aryl glycosid derivatives, pharmaceutical composition, preparation process and uses thereof” (SHANGHAI DE NOVO PHARMATECH CO. LTD., priority 2014, dated 2018):

What was measured:
[1] = biological target: T1, SGLT-2 (Homo sapiens, UniProt P31639); assay: [14C]-AMG absorption in stable SGLT2 expressing Flp-in CHO cells (SGLT-2 activity screening assay); format: cell-based; conditions: 14C-AMG uptake, 37° C. 1 h, 1% DMSO
T1 sequence (P31639 1-672): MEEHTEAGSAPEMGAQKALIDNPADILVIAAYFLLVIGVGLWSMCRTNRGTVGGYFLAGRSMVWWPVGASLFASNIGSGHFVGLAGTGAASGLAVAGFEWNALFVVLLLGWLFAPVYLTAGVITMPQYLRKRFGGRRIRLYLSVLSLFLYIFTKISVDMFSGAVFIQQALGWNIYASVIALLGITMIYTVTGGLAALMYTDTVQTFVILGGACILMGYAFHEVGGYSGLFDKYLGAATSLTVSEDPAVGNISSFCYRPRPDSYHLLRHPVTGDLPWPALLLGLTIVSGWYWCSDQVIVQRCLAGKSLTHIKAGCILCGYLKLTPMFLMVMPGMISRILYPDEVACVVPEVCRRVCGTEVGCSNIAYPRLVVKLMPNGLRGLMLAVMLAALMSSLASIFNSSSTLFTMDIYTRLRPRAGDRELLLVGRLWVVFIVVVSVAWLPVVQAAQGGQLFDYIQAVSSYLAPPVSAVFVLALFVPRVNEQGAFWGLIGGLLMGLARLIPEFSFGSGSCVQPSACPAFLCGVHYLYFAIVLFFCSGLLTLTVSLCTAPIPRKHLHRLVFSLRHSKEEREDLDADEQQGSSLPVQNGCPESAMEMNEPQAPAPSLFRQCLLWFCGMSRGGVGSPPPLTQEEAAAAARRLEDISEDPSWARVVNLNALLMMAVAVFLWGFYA
How it was run: (§1)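 Stable Flp-in CHO cells expressing human SGLT1 or SGLT2, plated overnight, were given [14C]-AMG (2.5 μCi/mL) in Na+ buffer pH 7.4 with compound at 1% DMSO, 1 h at 37 °C. Uptake stopped with ice-cold phlorizin (0.5 mM) buffer; lysate radioactivity counted, IC50 calculated.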

[2] = biological target: T2, SGLT-1 (Homo sapiens, UniProt P13866); assay: [14C]-AMG absorption in stable SGLT1 expressing Flp-in CHO cells (SGLT-1 activity screening assay); format: cell-based; conditions: 14C-AMG uptake, 37° C. 1 h, 1% DMSO
T2 sequence (P13866 1-664): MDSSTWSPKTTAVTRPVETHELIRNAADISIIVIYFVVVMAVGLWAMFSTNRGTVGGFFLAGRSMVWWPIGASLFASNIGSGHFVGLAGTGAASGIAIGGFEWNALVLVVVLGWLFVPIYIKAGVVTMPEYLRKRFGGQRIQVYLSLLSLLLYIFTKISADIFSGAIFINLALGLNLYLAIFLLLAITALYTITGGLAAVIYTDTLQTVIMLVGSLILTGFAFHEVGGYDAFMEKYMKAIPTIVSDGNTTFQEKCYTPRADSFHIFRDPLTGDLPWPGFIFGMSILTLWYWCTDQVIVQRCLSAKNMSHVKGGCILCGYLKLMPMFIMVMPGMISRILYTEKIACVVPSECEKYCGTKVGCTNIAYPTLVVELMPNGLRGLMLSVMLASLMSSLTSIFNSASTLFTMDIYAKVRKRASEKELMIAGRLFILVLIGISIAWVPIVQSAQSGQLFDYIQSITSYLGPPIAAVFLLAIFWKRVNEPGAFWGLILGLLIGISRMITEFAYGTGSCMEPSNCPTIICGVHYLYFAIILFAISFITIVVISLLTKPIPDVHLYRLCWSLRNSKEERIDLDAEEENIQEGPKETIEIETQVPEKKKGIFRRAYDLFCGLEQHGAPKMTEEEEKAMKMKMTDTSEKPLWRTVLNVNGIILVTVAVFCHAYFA
How it was run: as §1

[3] = test system: C57/BL6 mice; assay: Urinary glucose excretion test in C57/BL6 mice; format: in vivo; conditions: male C57/BL6 mice, 10 mg/Kg oral; for Glucose (excreted urine glucose): then 5 g/Kg glucose, total urine in 24 h, mean of 6 mice
Method: Example 2: Urinary Glucose Excretion Test in C57/BL6 Mice
Adult male C57/BL6 mice with body weight over 20 g (Shanghai LSK Laboratory Animal Ltd) were orally dosed with test compound I (10 mg/Kg) after which the animals were fed with 5 g/Kg glucose. The animals were housed in metabolic cages to collect total urine in 24 h. The cage was washed with 5 mL of normal saline. Water and food were provided to the mice ad libitum during the 24 h period. The urine samples were immediately frozen after collection, and the glucose levels were then determined. The total amount of excreted urine glucose was calculated based on total amount of urine, and then converted to amount of excreted glucose (mg) per 200 mg body weight in 24 h based on mouse body weight. The result is shown in Table 2 (mean values of 6 mice).

IC50 [1]	IC50 [2]	SMILES	activity in urinary glucose excretion compared with compound A (Empagliflozin) ([3]; 24 h urine, statement on Table 2)	Glucose (excreted urine glucose) [3]
4.1 nM	2100 nM	OC[C@H]1O[C@@H](c2ccc(Cl)c(Cc3ccc(OCC4Cc5ccccc5O4)cc3)c2)[C@H](O)[C@@H](O)[C@@H]1O (stereo partly drawn) [Compound I-22, (2S,3R,4R,5S,6R)-2-(4-chloro-3-(4-((2,3-dihydrobenzofuran-2-yl)methoxy)benzyl)phenyl)-6-(hydroxymethyl)tetrahydro-2H-pyran-3,4,5-triol]	significantly more active than compound A	3106.6 mg/200 mg body weight/24 h
1 nM	584 nM	OC[C@H]1O[C@@H](c2ccc(Cl)c(Cc3ccc(OCC4OCc5ccccc54)cc3)c2)[C@H](O)[C@@H](O)[C@@H]1O (stereo partly drawn) [Compound I-36, (2S,3R,4R,5S,6R)-2-(4-chloro-3-(4-((1,3-dihydroisobenzofuran-1-yl)methoxy)benzyl)phenyl)-6-(hydroxymethyl)tetrahydro-2H-pyran-3,4,5-triol]		1723.1 mg/200 mg body weight/24 h
